Like-named read-outs stand apart in the source and are kept apart here.
Target: KRas G12D/Q61H double mutant (Homo sapiens (Human), UniProt P01116, G12D/Q61H)
Assay: Ras GTP binding domain inhibition assay (labeled GTP)
Conditions: for IC50: read-out: KRas G12D Q61H IC50
In short: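 Inhibition of labeled GTP binding is measured on immobilized His-KRas protein in Tris buffer pH 7.5 with 1 mM MgCl2 and 1 mM DTT.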

[1] = 20 μM, read-out: KRas G12D Q61H % Inh.
[2] = 20 μM compound, read-out: % Inhibition at 20 μM KRas G12D Q61H

KRas G12D/Q61H double mutant, sequence (P01116-2 other isoform, or with tags, fused parts or gaps G12D/Q61H): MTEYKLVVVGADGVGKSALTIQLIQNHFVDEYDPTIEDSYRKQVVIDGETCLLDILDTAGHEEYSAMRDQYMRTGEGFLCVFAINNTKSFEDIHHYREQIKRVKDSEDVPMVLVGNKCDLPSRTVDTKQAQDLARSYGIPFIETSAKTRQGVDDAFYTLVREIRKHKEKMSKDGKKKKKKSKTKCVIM

| SMILES | inhibition at 20 µM [1] [%] | further results |
| --- | --- | --- |
| O=C(CCCc1nc2ccccc2s1)Nc1nnc(-c2ccccn2)[nH]1 | 51 to 75 | – |
| CC(C)N(Cc1nnc(-c2ccc(Cl)cc2Cl)o1)c1ccc(F)cc1 | 25 to 50 | – |
| N#Cc1ccc(OCC(=O)Nc2nnc(-c3ccccn3)[nH]2)cc1 | 51 to 75 | – |
| O=C(Cc1ccccc1F)Nc1nnc(-c2ccccn2)[nH]1 | 51 to 75 | – |
| CC(C(=O)Nc1nnc(-c2ccccn2)[nH]1)n1cnc2ccccc21 (centres unmarked) | 51 to 75 | – |
| O=C(Nc1nnc(-c2ccccn2)[nH]1)C1CCCN(C(=O)c2cccs2)C1 (centres unmarked) | 51 to 75 | – |
| CS(=O)(=O)c1cccc(C(=O)Nc2nnc(-c3ccccn3)[nH]2)c1 | 51 to 75 | – |
| O=C(Nc1nnc(-c2ccccn2)[nH]1)c1csc(-c2ccoc2)n1 | 76 to 100 | – |
| O=C(c1ccc2c(c1)CCO2)N1CCCc2c(O)nc(-c3ccccn3)nc21 | 1 to 25 | – |
| O=C(Nc1nnc(-c2ccccn2)[nH]1)C1CC(=O)N(C2CCCC2)C1 (centres unmarked) | – | inhibition at 20 µM [2]: 25 to 50% |
| Clc1ccccc1-c1nnc(CN2CCCc3ccccc32)o1 | – | inhibition at 20 µM [2]: 25 to 50% |
| CC(c1nc(C(C)(C)C)no1)N(C)CC12CC3CC(CC(C3)C1)C2 (centres unmarked) | – | inhibition at 20 µM [2]: 25 to 50% |
| O=C1COc2cc(C(=O)Nc3nc(-c4ccccn4)cs3)ccc2N1 | – | inhibition at 20 µM [2]: 25 to 50% |
| COCCn1c(SCc2csc(-c3ccccc3)n2)nc2ccccc21 | – | inhibition at 20 µM [2]: 25 to 50% |
| CCc1ccc(OCC(=O)Nc2nnc(-c3ccccn3)[nH]2)cc1 | – | inhibition at 20 µM [2]: 25 to 50% |
| CCN(CCC(=O)OC)c1nc(-c2ccccn2)nc2c1CCC2 | – | inhibition at 20 µM [2]: 25 to 50% |
| O=C(COCC1CC1)Nc1nnc(-c2ccccn2)[nH]1 | – | inhibition at 20 µM [2]: 25 to 50% |
| Cc1c(C(=O)Nc2nc(-c3ccccn3)cs2)oc2ccccc12 | – | inhibition at 20 µM [2]: 25 to 50% |
| CCCN(CC1CC1)S(=O)(=O)Oc1cccc(C(=O)NCc2ccccc2)c1 | – | inhibition at 20 µM [2]: 25 to 50% |
| O=C(c1cc(-c2ccccc2)on1)N(Cc1ccco1)C1CCCC1 | – | inhibition at 20 µM [2]: 25 to 50% |
| O=C(CCc1cnn(-c2ccccc2)c1)Nc1nnc(-c2ccccn2)[nH]1 [drawing 2450] | 51 to 75 | – |
| CC(C)NC(=O)Nc1cccc(C(=O)Nc2nnc(-c3ccccn3)[nH]2)c1 [drawing 2451] | 51 to 75 | – |

| SMILES | inhibition at 20 µM [1] [%] | further results |
| --- | --- | --- |
| O=C(Cc1ccc(-n2cnnn2)cc1)Nc1nnc(-c2ccccn2)[nH]1 [drawing 2452] | 51 to 75 | – |
| COc1cccc(CCC(=O)Nc2nnc(-c3ccccn3)[nH]2)c1 [drawing 2453] | 51 to 75 | – |
| COc1ccc(CCC(=O)Nc2nnc(-c3ccccn3)[nH]2)cc1F [drawing 2454] | 51 to 75 | – |
| O=C(Nc1nnc(-c2ccccn2)[nH]1)c1ccc2c(c1)CCO2 [drawing 2455] | 51 to 75 | – |
| O=C(Cc1c[nH]c2ccccc12)Nc1nnc(-c2ccccn2)[nH]1 [drawing 2456] | 51 to 75 | – |
| Cn1cc(C2CC2C(=O)Nc2nnc(-c3ccccn3)[nH]2)cn1 (centres unmarked) [drawing 2457] | 51 to 75 | – |
| O=C(COc1ccc(F)cc1F)Nc1nnc(-c2ccccn2)[nH]1 [drawing 2458] | 51 to 75 | – |
| O=C(COc1ccc(F)cc1F)Nc1nnc(-c2ccccn2)[nH]1 [drawing 2459] | – | KRas G12D Q61H % Inh. (20 μM): C (C = 51-75% inhibition) |
| COc1cccc(CC(=O)Nc2nnc(-c3ccccn3)[nH]2)c1 [drawing 2460] | 51 to 75 | – |
| Cc1ccc(C(=O)Nc2nnc(-c3ccccn3)[nH]2)cc1S(C)(=O)=O [drawing 2461] | 51 to 75 | – |
| O=C(CCn1ccc2ccccc21)Nc1nnc(-c2ccccn2)[nH]1 [drawing 2462] | 51 to 75 | – |
| Cc1oc(-c2ccccc2)nc1C(=O)Nc1nnc(-c2ccccn2)[nH]1 [drawing 2463] | 51 to 75 | – |
| Cc1c(C(=O)Nc2nnc(-c3ccccn3)[nH]2)oc2ccccc12 [drawing 2465] | 51 to 75 | – |
| CC(Oc1ccccc1Cl)C(=O)Nc1nnc(-c2ccccn2)[nH]1 (centres unmarked) [drawing 2467] | 51 to 75 | – |
| O=C(Nc1nnc(-c2ccccn2)[nH]1)c1ccn(-c2cccc(F)c2)n1 [drawing 2468] | 51 to 75 | – |
| COc1ccc2c(ccn2CC(=O)Nc2nnc(-c3ccccn3)[nH]2)c1 [drawing 2470] | 51 to 75 | – |
| O=C(CCc1c[nH]c2ccccc12)Nc1nnc(-c2ccccn2)[nH]1 [drawing 2471] | 51 to 75 | IC50: < 5 µM |
| Cc1ccc(CC(=O)Nc2nnc(-c3ccccn3)[nH]2)cc1 [drawing 2473] | 51 to 75 | – |
| Cn1cc(-c2nc(C(=O)Nc3nnc(-c4ccccn4)[nH]3)cs2)cn1 [drawing 2474] | 76 to 100 | – |
| Cn1ccc(C(=O)Nc2nnc(-c3ccccn3)[nH]2)cc1=O [drawing 2476] | 25 to 50 | – |
| Cc1c(C(=O)Nc2nnc(-c3ccccn3)[nH]2)oc2c1C(=O)CCC2 [drawing 2477] | 51 to 75 | – |
| C[C@H](NS(=O)(=O)c1ccccc1F)C(=O)Nc1nnc(-c2ccccn2)[nH]1 [drawing 2478] | 51 to 75 | – |

| SMILES | inhibition at 20 µM [1] [%] | further results |
| --- | --- | --- |
| CC(OCC(F)(F)F)C(=O)Nc1nnc(-c2ccccn2)[nH]1 (centres unmarked) [drawing 2479] | 51 to 75 | – |
| CC(C)c1nc(CC(=O)Nc2nnc(-c3ccccn3)[nH]2)cs1 [drawing 2480] | 51 to 75 | – |
| O=C(Nc1nnc(-c2ccccn2)[nH]1)c1ccc(CN2C(=O)CCC2=O)cc1 [drawing 2481] | 51 to 75 | – |
| CC(C)c1noc(CCCC(=O)Nc2nnc(-c3ccccn3)[nH]2)n1 [drawing 2483] | 51 to 75 | – |
| O=C(CC1C=CCC1)Nc1nnc(-c2ccccn2)[nH]1 (centres unmarked) [drawing 2484] | 51 to 75 | – |
| COc1ccc(CC(=O)Nc2nnc(-c3ccccn3)[nH]2)cc1 [drawing 2485] | 51 to 75 | – |
| CC(C)c1noc(CCC(=O)Nc2nnc(-c3ccccn3)[nH]2)n1 [drawing 2486] | 51 to 75 | – |
| O=C(Cc1cccs1)Nc1nnc(-c2ccccn2)[nH]1 [drawing 2487] | 51 to 75 | – |
| N#Cc1ccccc1OCC(=O)Nc1nnc(-c2ccccn2)[nH]1 [drawing 2488] | 51 to 75 | – |
| O=C(Nc1nnc(-c2ccccn2)[nH]1)C1CCCC1 [drawing 2489] | 51 to 75 | – |
| O=C(Nc1nnc(-c2ccccn2)[nH]1)C1COc2ccccc2C1 (centres unmarked) [drawing 2490] | 51 to 75 | – |
| O=C(Nc1nnc(-c2ccccn2)[nH]1)c1ccc(Oc2ccccc2)nc1 [drawing 2491] | 51 to 75 | – |
| Cc1noc(C)c1CC(=O)Nc1nnc(-c2ccccn2)[nH]1 [drawing 2492] | 51 to 75 | – |
| CC(C)(C)c1noc(CCC(=O)Nc2nnc(-c3ccccn3)[nH]2)n1 [drawing 2493] | 51 to 75 | – |
| O=C(Nc1nnc(-c2ccccn2)[nH]1)C1CC(=O)N(CCc2ccccc2)C1 (centres unmarked) [drawing 2494] | 51 to 75 | – |
| O=C(Cc1ccccc1)NCCC(=O)Nc1nnc(-c2ccccn2)[nH]1 [drawing 2495] | 51 to 75 | – |
| CN(CC(=O)Nc1nnc(-c2ccccn2)[nH]1)S(C)(=O)=O [drawing 2496] | 51 to 75 | – |
| O=C(Cc1cccc(F)c1)Nc1nnc(-c2ccccn2)[nH]1 [drawing 2497] | 51 to 75 | – |
| O=C(Nc1nnc(-c2ccccn2)[nH]1)c1cccc(NC(=O)C2CCCO2)c1 (centres unmarked) [drawing 2498] | 51 to 75 | – |
| O=C(CC1CCCC1)NCC(=O)Nc1nnc(-c2ccccn2)[nH]1 [drawing 2500] | 51 to 75 | – |
| O=C(Nc1nnc(-c2ccccn2)[nH]1)c1ncoc1-c1cccs1 [drawing 2501] | 51 to 75 | – |
| O=C(Cn1c(=O)oc2ccccc21)Nc1nnc(-c2ccccn2)[nH]1 [drawing 2502] | 51 to 75 | – |

| SMILES | inhibition at 20 µM [1] [%] | further results |
| --- | --- | --- |
| O=C(CCNC(=O)c1ccco1)Nc1nnc(-c2ccccn2)[nH]1 [drawing 2503] | 51 to 75 | – |
| CC(C)COC(C)C(=O)Nc1nnc(-c2ccccn2)[nH]1 (centres unmarked) [drawing 2505] | 51 to 75 | – |
| Cc1ccc(CC(=O)Nc2nnc(-c3ccccn3)[nH]2)cn1 [drawing 2506] | 51 to 75 | – |
| CCn1nnc2cc(C(=O)Nc3nnc(-c4ccccn4)[nH]3)ccc21 [drawing 2507] | 51 to 75 | – |
| O=C(Nc1nnc(-c2ccccn2)[nH]1)c1nc(N2CCOCC2)ncc1Cl [drawing 2508] | 51 to 75 | – |
| O=C(Nc1nnc(-c2ccccn2)[nH]1)C1Cc2ccccc2O1 (centres unmarked) [drawing 2509] | 51 to 75 | – |
| CC(Oc1ccccc1C#N)C(=O)Nc1nnc(-c2ccccn2)[nH]1 (centres unmarked) [drawing 2510] | 51 to 75 | – |
| CC(Oc1cccc(C#N)c1)C(=O)Nc1nnc(-c2ccccn2)[nH]1 (centres unmarked) [drawing 2511] | 51 to 75 | IC50: < 5 µM |
| CC(Oc1ccc(C(=O)Nc2nnc(-c3ccccn3)[nH]2)cn1)c1ccccc1 (centres unmarked) [drawing 2512] | 51 to 75 | – |
| O=C(Nc1nnc(-c2ccccn2)[nH]1)C1CCCN(c2ncccn2)C1 (centres unmarked) [drawing 2514] | 51 to 75 | – |
| O=C(Cc1ccc(F)cc1)Nc1nnc(-c2ccccn2)[nH]1 [drawing 2515] | 51 to 75 | – |
| CC(OCc1ccccc1)C(=O)Nc1nnc(-c2ccccn2)[nH]1 (centres unmarked) [drawing 2516] | 51 to 75 | – |
| CC(COCc1ccccc1)C(=O)Nc1nnc(-c2ccccn2)[nH]1 (centres unmarked) [drawing 2517] | 51 to 75 | – |
| O=C(Nc1nnc(-c2ccccn2)[nH]1)C1CCCC(C(F)(F)F)C1 (centres unmarked) [drawing 2518] | 51 to 75 | – |
| O=C(COCc1ccccc1Cl)Nc1nnc(-c2ccccn2)[nH]1 [drawing 2519] | 51 to 75 | – |
| O=C(Nc1nnc(-c2ccccn2)[nH]1)C1CC1c1ccc(F)cc1 (centres unmarked) [drawing 2520] | 51 to 75 | – |
| Cc1ccc(CC(=O)Nc2nnc(-c3ccccn3)[nH]2)s1 [drawing 2521] | 51 to 75 | – |
| O=C(Nc1nnc(-c2ccccn2)[nH]1)c1ccc(OCC2CC2)cc1 [drawing 2522] | 51 to 75 | – |
| N#Cc1cccc(OCC(=O)Nc2nnc(-c3ccccn3)[nH]2)c1 [drawing 2523] | 51 to 75 | – |
| Cc1cccc(C(=O)Nc2nnc(-c3ccccn3)[nH]2)n1 [drawing 2524] | 51 to 75 | – |
| CC(Oc1ccc(C#N)cc1)C(=O)Nc1nnc(-c2ccccn2)[nH]1 (centres unmarked) [drawing 2525] | 51 to 75 | – |
